Results on 2 compounds are retold here after patent US8106235B2, “Biphenyl compound selective agonists of gamma RAR receptors” (Galderma Research & Development, priority 2005, dated 2012).

One series concerns the target T1, RAR alpha (Homo sapiens, UniProt P10276).
T1 construct: It drives the ERE-βGlob-Luc reporter
T1 sequence (P10276 183-417 limits assumed): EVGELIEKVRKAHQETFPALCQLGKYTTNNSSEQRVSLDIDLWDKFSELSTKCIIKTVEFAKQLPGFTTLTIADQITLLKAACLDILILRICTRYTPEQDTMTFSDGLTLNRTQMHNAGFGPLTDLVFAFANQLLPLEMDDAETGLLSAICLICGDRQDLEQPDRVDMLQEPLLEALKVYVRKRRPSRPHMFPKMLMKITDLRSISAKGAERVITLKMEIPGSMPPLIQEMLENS
The series is described as follows: Transactivation test (luciferase reporter, apparent Kd by Schild regression against a reference antagonist), RAR alpha. The settings on record: HeLa stable transfectants, ERE-βGlob-Luc reporter, read-out: RAR alpha Kdapp. In kind it is cell-based. As for the experimental part: (§1) The activation of the receptors by an agonist (activator) in HeLa cells results in the expression of a reporter gene, luciferase, which, in the presence of a substrate, generates light. It is thus possible to measure the activation of the receptors by quantifying the luminescence produced after incubation of the cells in the presence of a reference antagonist. The activating products displace the antagonist from its site, thus allowing activation of the receptor. The activity is measured by quantifying the increase in the light produced. This measurement makes it possible to determine the activator activity of the compound that can be used in the invention.
(§2) In this study, a constant which is the affinity of the molecule for the receptor is determined. […]
(§3) These cross curves make it possible to determine the AC50 values (concentration at which 50% activation of the receptor is observed) of the reference ligand at various concentrations of test product. These AC50 values are used to calculate the Schild regression by plotting a straight line corresponding to the Schild equation (“Quantitation in receptor pharmacology” Terry P. Kenakin, Receptors and Channels, 2001, 7, 371-385).
(§4) In the case of an agonist, the AC50 is calculated by plotting the curve of the product at the concentration of the reference ligand giving 80% activation. […]

For the next series, the target named is T2, RAR beta (Homo sapiens, UniProt P10826).
T2 construct: It drives the ERE-βGlob-Luc reporter
T2 sequence (P10826 183-417 limits assumed): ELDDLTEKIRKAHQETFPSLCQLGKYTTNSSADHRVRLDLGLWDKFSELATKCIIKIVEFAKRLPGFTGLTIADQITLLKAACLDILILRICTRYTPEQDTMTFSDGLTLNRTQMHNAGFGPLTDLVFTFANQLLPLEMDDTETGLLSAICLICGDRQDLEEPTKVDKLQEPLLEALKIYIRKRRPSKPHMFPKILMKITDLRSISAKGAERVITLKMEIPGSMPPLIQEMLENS
The series is described as follows: Transactivation test (luciferase reporter, apparent Kd by Schild regression against a reference antagonist), RAR beta. In kind it is cell-based. Conditions: HeLa stable transfectants, ERE-βGlob-Luc reporter, read-out: RAR beta Kdapp. As for the experimental part:
as §1, §2, §3, §4

Series [1] deals with T3, RAR gamma (Homo sapiens, UniProt P13631).
T3 construct: RAR gamma Kdapp; apparent Kd; It drives the ERE-βGlob-Luc reporter
T3 sequence (P13631 185-419 limits assumed): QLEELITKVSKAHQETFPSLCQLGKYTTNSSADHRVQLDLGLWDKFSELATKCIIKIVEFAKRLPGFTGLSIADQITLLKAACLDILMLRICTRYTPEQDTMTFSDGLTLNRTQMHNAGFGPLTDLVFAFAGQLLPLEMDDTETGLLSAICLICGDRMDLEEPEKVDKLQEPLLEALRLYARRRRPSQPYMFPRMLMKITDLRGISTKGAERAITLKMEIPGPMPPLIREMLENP
The series is described as follows: Transactivation test (luciferase reporter, apparent Kd by Schild regression against a reference antagonist), RAR gamma. The settings on record: HeLa stable transfectants, ERE-βGlob-Luc reporter, RAR gamma; apparent Kd; read-out: RAR gamma Kdapp. In kind it is cell-based. The method, then:
as §1
(§5) In this study, a constant which is the affinity of the molecule for the receptor is determined. Since this value can fluctuate according to the basal activity and the expression of the receptor, it is designated apparent Kd (KdApp).
(§6) In order to determine this constant, “cross curves” of the test product (4′-(3′-hydroxypropyl)-3′-(5,5,8,8-tetramethyl-5,6,7,8-tetrahydronaphthalen-2-yl)biphenyl-4-carboxylic acid and 4′-(2,3-dihydroxypropyl)-3′-(5,5,8,8-tetramethyl-5,6,7,8-tetrahydronaphthalen-2-yl)biphenyl-4-carboxylic acid), against a reference antagonist otherwise known as reference ligand, 4-(5,5-dimethyl-8-p-tolyl-5,6-dihydronaphthalen-2-ylethynyl)benzoic acid, are produced. The test product is used at 10 concentrations and the reference antagonist at 7 concentrations. In each well (of a 96-well plate), the cells are in contact with one concentration of the test product and one concentration of the reference antagonist. […]
as §3
(§7) In the case of an agonist, the AC50 is calculated by plotting the curve of the product at the concentration of the reference ligand giving 80% activation. The percentage activation which corresponds to the maximum level of activity obtained is also measured. […]
(§8) The culture medium is removed by turning the plates over, and […] of a 1:1 PBS (phosphate buffered solution)/luciferin mixture are added to each well. After 5 minutes, the plates are read using the luminescence reader.

The subject of series [2] is RAR gamma. The series is described as above. In kind it is cell-based. Conditions: statement in words, from the Kdapp values of the transactivation test. The method, then: as §1, §5, §6, §3, §7, §8

`CC1(C)CCC(C)(C)c2cc(-c3cc(-c4ccc(C(=O)O)cc4)ccc3CCCO)ccc21` [Example 1, 4′-(3-hydroxypropyl)-3′-(5,5,8,8-tetramethyl-5,6,7,8-tetrahydronaphthalen-2-yl)biphenyl-4-carboxylic acid] displayed a melting point of 203 °C. Also, the Kd at RAR alpha came out at 15 nM. In addition, the Kd at RAR beta was 2 nM. Also, the Kd at RAR gamma [1] was 0.1 nM. Further, the “selectivity for the RAR gamma receptor subtype in comparison with RAR alpha and RAR beta” value with RAR gamma [2] was “better selectivity of these compounds for the RAR gamma receptor subtype”.
As for `CC1(C)CCC(C)(C)c2cc(-c3cc(-c4ccc(C(=O)O)cc4)ccc3CC(O)CO)ccc21` (stereo not drawn) [Example 2, 4′-(2,3-dihydroxypropyl)-3′-(5,5,8,8-tetramethyl-5,6,7,8-tetrahydronaphthalen-2-yl)biphenyl-4-carboxylic acid], the Kd on RAR alpha was 60 nM; on RAR beta it was 15 nM; at RAR gamma [1], 0.5 nM. In addition, in the series on RAR gamma [2], the “selectivity for the RAR gamma receptor subtype in comparison with RAR alpha and RAR beta” value is “better selectivity of these compounds for the RAR gamma receptor subtype”.
